Data on one molecule can be found in article PMC10372922 (Acta Pharmaceutica Sinica. B, 2023).

The assay concerns the target T1, TGF-β receptor type-1 (TGFβR1) (Homo sapiens, UniProt P36897).
T1 sequence (P36897 200-503 limits assumed): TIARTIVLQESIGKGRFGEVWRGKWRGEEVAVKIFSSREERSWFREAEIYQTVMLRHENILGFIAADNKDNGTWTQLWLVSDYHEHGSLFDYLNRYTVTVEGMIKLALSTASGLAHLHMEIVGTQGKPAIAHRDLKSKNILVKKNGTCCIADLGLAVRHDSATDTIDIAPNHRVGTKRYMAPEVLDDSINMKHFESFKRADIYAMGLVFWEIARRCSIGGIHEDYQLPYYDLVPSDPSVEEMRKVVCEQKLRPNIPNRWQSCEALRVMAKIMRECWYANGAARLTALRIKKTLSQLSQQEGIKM
As to the kind of experiment: SPR. Format: binding.

As usually defined, the Kd is the equilibrium constant for the complex coming apart. A high value points to lower affinity. `CC(=O)O[C@@H]1C[C@H](O)[C@@]23COC(O)C1(C)[C@@H]2C[C@@H](O)[C@@]1(C)[C@@H]2C(=O)C[C@@H](c4ccoc4)[C@]2(C)[C@@H](OC(C)=O)C(=O)[C@@H]13` (stereo partly shown) [ITSN, Isotoosendanin] yielded a Kd of 24 µM.
